9 compounds from patent US9464084B2, “P2X7 modulators” (Janssen Pharmaceutica NV, priority 2013, dated 2016) can be followed below.

Common to all, as to assay type: cell-based
The target in test [1] is T1, P2X7 (Homo sapiens (Human), UniProt Q99572). As to the kind of experiment: P2X7 antagonism in human PBMCs (LPS + Bz-ATP induced IL-1β release, ELISA).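 As to all read-outs here: PBMCs from donor human blood, with a further 1.5 h incubation of the cells in the assay.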 The conditions noted are these: LPS 30 ng/ml, Bz-ATP 0.5 mM; for PBMC 10 μM (% control): compound 10 μM. Background: In an ELISA, binding on a coated surface is turned into a signal by an enzyme label.
T1 sequence (Q99572 whole entry): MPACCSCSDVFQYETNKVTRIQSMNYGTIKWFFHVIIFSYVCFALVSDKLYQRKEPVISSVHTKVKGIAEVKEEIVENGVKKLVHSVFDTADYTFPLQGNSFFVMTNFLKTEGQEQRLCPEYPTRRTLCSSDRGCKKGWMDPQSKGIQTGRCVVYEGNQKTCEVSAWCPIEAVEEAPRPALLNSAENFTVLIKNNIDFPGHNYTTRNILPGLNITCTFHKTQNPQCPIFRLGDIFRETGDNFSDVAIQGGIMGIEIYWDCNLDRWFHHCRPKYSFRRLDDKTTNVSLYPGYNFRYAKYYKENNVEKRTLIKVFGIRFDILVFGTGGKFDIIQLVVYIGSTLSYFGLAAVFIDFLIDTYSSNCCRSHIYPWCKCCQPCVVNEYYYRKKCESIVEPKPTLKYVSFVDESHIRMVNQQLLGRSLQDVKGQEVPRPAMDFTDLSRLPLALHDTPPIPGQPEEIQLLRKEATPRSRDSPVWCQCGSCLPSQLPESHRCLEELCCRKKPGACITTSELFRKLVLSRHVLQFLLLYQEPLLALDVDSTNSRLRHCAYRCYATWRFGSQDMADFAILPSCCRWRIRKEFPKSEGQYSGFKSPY
In the next test the target is rat P2X7 (Rattus norvegicus (Rat), UniProt Q64663). As to the kind of experiment: Ca2+ flux (FLIPR) in 1321N1 cells expressing recombinant rat P2X7 channel.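 Also: Calcium-4 dye fluorescence change read 180 s after agonist addition, following 30 min cell preincubation with test compound.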 The settings on record: 250 μM BzATP. In general terms: Calcium assays in cells follow changes in intracellular calcium, usually with a dye or a luminescent sensor.
Chain of rat P2X7 (Q64663 whole entry): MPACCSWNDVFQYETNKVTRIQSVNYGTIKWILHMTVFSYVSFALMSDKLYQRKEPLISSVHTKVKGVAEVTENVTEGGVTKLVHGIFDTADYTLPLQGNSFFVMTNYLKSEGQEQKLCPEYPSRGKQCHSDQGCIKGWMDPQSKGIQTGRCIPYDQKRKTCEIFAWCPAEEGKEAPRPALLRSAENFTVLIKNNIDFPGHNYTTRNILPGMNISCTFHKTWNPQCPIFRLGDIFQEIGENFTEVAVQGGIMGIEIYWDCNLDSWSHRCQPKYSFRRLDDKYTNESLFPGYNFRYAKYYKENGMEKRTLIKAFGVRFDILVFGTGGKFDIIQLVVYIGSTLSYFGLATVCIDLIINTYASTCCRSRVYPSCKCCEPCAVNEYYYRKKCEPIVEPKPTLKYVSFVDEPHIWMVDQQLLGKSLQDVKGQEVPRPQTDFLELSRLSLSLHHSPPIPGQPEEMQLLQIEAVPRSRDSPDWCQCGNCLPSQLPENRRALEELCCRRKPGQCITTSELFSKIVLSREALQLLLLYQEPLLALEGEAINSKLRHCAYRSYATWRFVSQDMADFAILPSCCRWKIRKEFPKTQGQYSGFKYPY
The target of test [2] is T1, P2X7. The experiment in a line: Ca2+ flux (FLIPR) in 1321N1 cells expressing recombinant human P2X7 channel.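 Also: Calcium-4 dye-loaded cells exposed to compound for 30 min before agonist addition, fluorescence change read 180 s after agonist.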 The conditions noted are these: 250 μM BzATP.

Method for rat P2X7: Cells were seeded at a density of 25000 cells/well (96-well clear bottom black walled plates) in 100 μl volume/well. On the day of the experiment, cell plates were washed with assay buffer, containing (in mM): 130 NaCl, 2 KCl, 1 CaCl2, 1 MgCl2, 10 HEPES, 5 glucose; pH 7.40 and 300 mOs. After the wash, cells were loaded with the Calcium-4 dye (Molecular Device) and incubated in the dark for 60 minutes. Test compounds were prepared at 250× the test concentration in neat DMSO. Intermediate 96-well compound plates were prepared by transferring 1.2 μL of the compound into 300 μL of assay buffer. A further 3× dilution occurred when transferring 50 μL/well of the compound plate to 100 μL/well in the cell plate. Cells were incubated with test compounds and dye for 30 minutes. […] The fluorescence change was measured 180 seconds after adding the agonist.

For orientation: IC50 means the concentration at which inhibition is half-maximal. For the compound `Cc1cnc(-n2nnc3c2CCN(C(=O)c2cccc(Cl)c2Cl)C3C)c(C)c1` (stereo not drawn) [Example 160, (2,3-dichlorophenyl)(1-(3,5-dimethylpyridin-2-yl)-4-methyl-6,7-dihydro-1H-[1,2,3]triazolo[4,5-c]pyridin-5(4H)-yl)methanone], the “PBMC 10 μM (% control)” value on P2X7 [1] worked out at 101.5 % control. In addition, the IC50 on rat P2X7 and on P2X7 [2] was > 10000 nM throughout.

As to `Cc1cc(C)nc(-n2nnc3c2CCN(C(=O)c2cccc(Cl)c2Cl)C3C)c1` (stereo not drawn) [Example 231, (2,3-dichlorophenyl)(1-(4,6-dimethylpyridin-2-yl)-4-methyl-6,7-dihydro-1H-[1,2,3]triazolo[4,5-c]pyridin-5(4H)-yl)methanone], the “PBMC 10 μM (% control)” value at P2X7 [1] was −4.8 % control. Besides, the IC50 came out at 38200 nM on rat P2X7 and 499 nM on P2X7 [2].

Take `C[C@@H]1c2nnn(-c3cncnc3)c2CCN1C(=O)c1cccc(C(F)(F)F)c1Cl` (single isomer, unassigned) [Example 334, (R*)-(2-chloro-3-(trifluoromethyl)phenyl)(4-methyl-1-(pyrimidin-5-yl)-6,7-dihydro-1H-[1,2,3]triazolo[4,5-c]pyridin-5(4H)-yl)methanone]: on P2X7 [1], the “PBMC 10 μM (% control)” value was found to be 101.8 % control. The IC50 at rat P2X7 and on P2X7 [2] was > 10000 nM throughout.

For the compound `C[C@H]1Cc2c(nnn2-c2ncc(F)cn2)CN1C(=O)c1cc(F)cc(C(F)(F)F)c1` [Example 307, (S)-(3-fluoro-5-(trifluoromethyl)phenyl)(1-(5-fluoropyrimidin-2-yl)-6-methyl-6,7-dihydro-1H-[1,2,3]triazolo[4,5-c]pyridin-5(4H)-yl)methanone], the “PBMC 10 μM (% control)” value on P2X7 [1] amounted to 2.2 % control. Also, the IC50 was 10700 nM at rat P2X7 and > 10000 nM on P2X7 [2].

`O=C(c1ccc(F)cc1Cl)N1CCc2c(nnn2-c2ccccn2)C1` [Example 117, (2-Chloro-4-fluorophenyl)(1-(pyridin-2-yl)-6,7-dihydro-1H-[1,2,3]triazolo[4,5-c]pyridin-5(4H)-yl)methanone]: the “PBMC 10 μM (% control)” value on P2X7 [1] stood at 4.3 % control. The IC50 on rat P2X7 was > 10000 nM; at P2X7 [2], 2220 nM.

Regarding `CC1c2ncn(-c3cnccn3)c2C=CN1C(=O)c1cccc(C(F)(F)F)c1Cl` (stereo not drawn) [Example 56, 5-{[2-Chloro-3-(trifluoromethyl)phenyl]carbonyl}-4-methyl-1-pyrazin-2-yl-4,5-dihydro-1H-imidazo[4,5-c]pyridine], the “PBMC 1 μM (% control)” value at P2X7 [1] (compound 1 μM) is 10.1 % control. Moreover, the IC50 is 398 nM on rat P2X7 and 25.1 nM at P2X7 [2].

For the compound `CC1Cc2c(-c3ccn[nH]3)n[nH]c2CN1C(=O)c1ccc(Cl)cc1Cl` (stereo not drawn) [Example 268, (2,4-dichlorophenyl)(5-methyl-3-(1H-pyrazol-5-yl)-4,5-dihydro-1H-pyrazolo[3,4-c]pyridin-6(7H)-yl)methanone], the “PBMC 10 μM (% control)” value at P2X7 [1] was −59.9 % control. Besides, the half-inhibitory concentration (IC50) at rat P2X7 came to 1220 nM; on P2X7 [2], 600 nM.

As for `C[C@@H]1c2nnn(-c3cccc(F)n3)c2CCN1C(=O)c1cccc(C(F)(F)F)c1Cl` (single isomer, unassigned) [Example 146, (R*)-(2-chloro-3-(trifluoromethyl)phenyl)(1-(6-fluoropyridin-2-yl)-4-methyl-6,7-dihydro-1H-[1,2,3]triazolo[4,5-c]pyridin-5(4H)-yl)methanone], the “PBMC 10 μM (% control)” value on P2X7 [1] is listed as 30.9 % control. The values for the IC50 on rat P2X7 and on P2X7 [2] were > 10000 nM and 2700 nM, respectively.

For the compound `CC1c2nnn(-c3cncnc3)c2C=CN1C(=O)c1cccc(C(F)(F)F)c1Cl` (stereo not drawn) [Example 236, (2-Chloro-3-(trifluoromethyl)phenyl)(4-methyl-1-(pyrimidin-5-yl)-1H-[1,2,3]triazolo[4,5-c]pyridin-5(4H)-yl)methanone], the “PBMC 10 μM (% control)” value on P2X7 [1] is on record as 9.3 % control. Also, the IC50 on rat P2X7 was > 10000 nM; on P2X7 [2], 1190 nM.
